Results from ChEMBL document CHEMBL5338718, “Design and exploration of gut-restricted bifunctional molecule with TGR5 agonistic and DPP4 inhibitory effects for treating ulcerative colitis” (Eur J Med Chem, 2022).
Active and inactive are the calls of the source. The rule behind the calls is not given here.

Assays:
[1] = target: T1, G-protein coupled bile acid receptor 1 (Homo sapiens, UniProt Q8TDU6); assay: Agonist activity at human TGR5 expressed in human HEK293 cells co-expressing CRE-driven luciferase reporter gene assessed as luciferase activity incubated for 5.5 hrs by Steady-Glo based luciferase assay; assay type: functional, cell-based
T1 sequence (Q8TDU6 whole entry): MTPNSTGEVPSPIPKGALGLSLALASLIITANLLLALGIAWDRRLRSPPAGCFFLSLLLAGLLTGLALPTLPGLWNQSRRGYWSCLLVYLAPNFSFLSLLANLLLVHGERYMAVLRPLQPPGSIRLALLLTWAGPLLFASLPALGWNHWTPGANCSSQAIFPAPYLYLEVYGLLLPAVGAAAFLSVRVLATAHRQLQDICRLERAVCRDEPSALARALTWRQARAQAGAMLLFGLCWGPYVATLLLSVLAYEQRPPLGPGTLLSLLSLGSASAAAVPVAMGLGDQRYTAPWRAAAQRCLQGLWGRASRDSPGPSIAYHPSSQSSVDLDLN

[2] = Apparent permeability across basolateral to apical side in human Caco-2 cells at 20 uM and measured upto 95 mins by LC-MS/MS analysis; assay type: ADME, cell-based
[3] = Water solubility at pH 7.4; assay type: physicochemical
Mus musculus [4] = assay: Anti-colitis activity against DSS-induced ulcerative colitis BALB/c mouse model assessed as reduction in body weight loss by measuring DAI score at 30 mg/kg,po and measured after 5 to 10 days; assay type: functional, organism-based; conditions: time 5-10 day
Mus musculus [5] = assay: Anti-colitis activity against DSS-induced ulcerative colitis BALB/c mouse model assessed as reduction in stool softness by measuring DAI score at 30 mg/kg,po and measured after 5 to 10 days; assay type: functional, organism-based; conditions: time 5-10 day
Mus musculus [6] = assay: In vivo agonist activity at TGR5 in overnight fasted ICR mouse assessed as increase in GLP-1 activity in serum at 100 mg/kg,po preincubated with sitagliptin at 30 mg/kg,po for one hr followed by compound addition and measured after 8 hrs by ELISA; assay type: functional, organism-based
[7] = Cmax in overnight-fasted ICR mouse plasma at 30 mg/kg, po and measured upto 8 hrs by LC-MS/MS analysis; assay type: ADME, organism-based; parameters: dose 30 mg/kg, time < 8 hrs, route po
Mus musculus [8] = assay: Induction of gut restriction in overnight fasted ICR mouse assessed as effect on gallbladder-filling by measuring bile weight at 30 to 200 mg/kg, po and measured after 4 hrs by Vernier caliper analysis; assay type: functional, organism-based; conditions: dose 30-200 mg/kg
[9] = Cmax in overnight-fasted ICR mouse Gall bladder at 30 mg/kg, po and measured upto 8 hrs by LC-MS/MS analysis; assay type: ADME, organism-based; parameters: dose 30 mg/kg, time < 8 hrs, route po
Mus musculus [10] = assay: In vivo inhibition of DDP4 in ICR mouse assessed as decrease in enzyme activity in serum at 200 mg/kg,po and measured at 4 hrs using Gly-Pro-AMC as substrate by fluorescence based microplate reader assay; assay type: functional, organism-based
Mus musculus [11] = assay: Induction of gut restriction in overnight fasted ICR mouse assessed as effect on gallbladder-filling by measuring gallbladder volume at 30 to 200 mg/kg, po and measured after 4 hrs by Vernier caliper analysis; assay type: functional, organism-based; conditions: dose 30-200 mg/kg
Mus musculus [12] = assay: Anti-colitis activity against DSS-induced ulcerative colitis BALB/c mouse model assessed as decrease in histological score at 30 mg/kg,po for 10 days by Hematoxylin and eosin staining based microscopy; assay type: functional, organism-based; conditions: time 10.0 day
[13] = target: T2, G-protein coupled bile acid receptor 1 (Mus musculus, UniProt Q80SS6); assay: Agonist activity at mouse TGR5 expressed in human HEK293 cells co-expressing CRE-driven luciferase reporter gene assessed as luciferase activity incubated for 5.5 hrs by Steady-Glo based luciferase assay; assay type: functional, cell-based
T2 sequence (Q80SS6 whole entry): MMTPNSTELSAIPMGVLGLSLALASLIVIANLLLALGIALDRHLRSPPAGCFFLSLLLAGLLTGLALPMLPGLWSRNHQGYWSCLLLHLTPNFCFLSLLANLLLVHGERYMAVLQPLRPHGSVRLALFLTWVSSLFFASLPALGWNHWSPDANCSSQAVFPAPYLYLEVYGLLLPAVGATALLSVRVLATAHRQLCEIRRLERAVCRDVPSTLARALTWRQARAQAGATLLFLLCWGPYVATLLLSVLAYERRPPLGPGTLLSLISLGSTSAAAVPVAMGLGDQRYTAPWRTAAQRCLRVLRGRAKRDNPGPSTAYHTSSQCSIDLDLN

Mus musculus [14] = assay: Anti-colitis activity against DSS-induced ulcerative colitis BALB/c mouse model assessed as suppression of DSS induced fecal occult blood at 30 mg/kg,po for 10 days; assay type: functional, organism-based; conditions: time 10.0 day
Mus musculus [15] = assay: Anti-colitis activity against DSS-induced ulcerative colitis BALB/c mouse model assessed as recovery of colon length at 30 mg/kg,po for 10 days; assay type: functional, organism-based; conditions: time 10.0 day
Mus musculus [16] = assay: Anti-colitis activity against DSS-induced ulcerative colitis BALB/c mouse model assessed as suppression of DSS induced diarrhea at 30 mg/kg,po for 10 days; assay type: functional, organism-based; conditions: time 10.0 day
Mus musculus [17] = assay: Anti-colitis activity against DSS-induced ulcerative colitis BALB/c mouse model assessed as decrease in inflammatory cell infiltration at 30 mg/kg,po for 10 days by Hematoxylin and eosin staining based microscopy; assay type: functional, organism-based; conditions: time 10.0 day
Dipeptidyl peptidase 4 = Dipeptidyl peptidase 4 (Mus musculus, UniProt P28843); assay: Inhibition of mouse serum DPP4 assessed as cleavage of substrate by measuring AMC release using Gly-Pro-AMC as substrate by fluorescence based microplate reader assay; assay type: cell-free
Mus musculus [18] = assay: In vivo inhibition of DDP4 in ICR mouse assessed as decrease in enzyme activity in ileum at 50 mg/kg,po and measured after 8 hrs using Gly-Pro-AMC as substrate by fluorescence based microplate reader assay; assay type: functional, organism-based
Mus musculus [19] = assay: Anti-colitis activity against DSS-induced ulcerative colitis BALB/c mouse model assessed as recovery of tissue damage at 30 mg/kg,po for 10 days by Hematoxylin and eosin staining based microscopy; assay type: functional, organism-based; conditions: time 10.0 day
Mus musculus [20] = assay: In vivo inhibition of DDP4 in ICR mouse assessed as decrease in enzyme activity in serum at 200 mg/kg,po and measured after 8 hrs using Gly-Pro-AMC as substrate by fluorescence based microplate reader assay; assay type: functional, organism-based
Mus musculus [21] = assay: Anti-colitis activity against DSS-induced ulcerative colitis BALB/c mouse model assessed as reduction in fecal occult blood by measuring DAI score at 30 mg/kg,po and measured after 5 to 10 days; assay type: functional, organism-based; conditions: time 5-10 day
Mus musculus [22] = assay: In vivo inhibition of DDP4 in ICR mouse assessed as decrease in enzyme activity in ileum at 25 mg/kg,po and measured after 8 hrs using Gly-Pro-AMC as substrate by fluorescence based microplate reader assay; assay type: functional, organism-based
Mus musculus [23] = assay: In vivo inhibition of DDP4 in ICR mouse assessed as decrease in enzyme activity in ileum at 200 mg/kg,po and measured after 8 hrs using Gly-Pro-AMC as substrate by fluorescence based microplate reader assay; assay type: functional, organism-based
[24] = Cmax in overnight-fasted ICR mouse ileum at 30 mg/kg, po and measured upto 8 hrs by LC-MS/MS analysis; assay type: ADME, organism-based; parameters: dose 30 mg/kg, time < 8 hrs, route po
[25] = Apparent permeability across apical to basolateral side in human Caco-2 cells at 20 uM and measured upto 95 mins by LC-MS/MS analysis; assay type: ADME, cell-based
Mus musculus [26] = assay: Anti-colitis activity against DSS-induced ulcerative colitis BALB/c mouse model assessed as suppression of DSS induced weight loss at 30 mg/kg,po for 10 days; assay type: functional, organism-based; conditions: time 10.0 day
Mus musculus [27] = assay: In vivo inhibition of DDP4 in ICR mouse assessed as decrease in enzyme activity in serum at 200 mg/kg,po and measured at 2 hrs using Gly-Pro-AMC as substrate by fluorescence based microplate reader assay; assay type: functional, organism-based
[28] = Water solubility at pH 6.8; assay type: physicochemical

Sequence of Dipeptidyl peptidase 4 (P28843 whole entry): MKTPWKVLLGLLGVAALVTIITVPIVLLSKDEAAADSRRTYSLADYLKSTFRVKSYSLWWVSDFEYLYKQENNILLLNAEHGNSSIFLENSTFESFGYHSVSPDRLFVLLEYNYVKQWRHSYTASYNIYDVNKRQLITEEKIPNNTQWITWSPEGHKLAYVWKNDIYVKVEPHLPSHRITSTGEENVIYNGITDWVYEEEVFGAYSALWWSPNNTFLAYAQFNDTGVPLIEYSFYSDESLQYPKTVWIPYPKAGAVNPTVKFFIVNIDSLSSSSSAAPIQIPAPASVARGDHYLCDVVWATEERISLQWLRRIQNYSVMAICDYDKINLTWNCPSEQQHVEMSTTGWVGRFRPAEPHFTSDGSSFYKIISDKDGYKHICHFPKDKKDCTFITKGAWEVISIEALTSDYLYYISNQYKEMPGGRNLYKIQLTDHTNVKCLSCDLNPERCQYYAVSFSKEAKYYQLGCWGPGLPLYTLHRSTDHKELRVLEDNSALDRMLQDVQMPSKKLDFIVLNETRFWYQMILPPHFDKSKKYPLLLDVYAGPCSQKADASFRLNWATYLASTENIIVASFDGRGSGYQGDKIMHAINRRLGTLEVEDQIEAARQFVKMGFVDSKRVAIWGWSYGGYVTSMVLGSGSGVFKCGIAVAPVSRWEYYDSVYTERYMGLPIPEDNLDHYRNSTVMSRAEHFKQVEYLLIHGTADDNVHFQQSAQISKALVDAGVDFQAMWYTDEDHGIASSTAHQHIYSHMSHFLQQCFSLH

EC50 [1]: 48.5 nM
Papp B→A at 1.583 h, 20 µM [2]: 0.01 ×10⁻⁶ cm/s
solubility [3]: > 100 µM
Cmax [7]: 8.3 ng/mL
Cmax [9]: 820 ng/mL
EC50 [13]: 3.4 nM
IC50 (Dipeptidyl peptidase 4): 21.5 nM
Cmax [24]: 11700 ng/mL
Papp A→B at 1.583 h, 20 µM [25]: 0.01 ×10⁻⁶ cm/s
solubility [28]: > 100 µM
SMILES: CC1C(=O)N(CC(=O)N(CCOCCOCCOCCOCCOCCOCCOCCOCCN(CC(=O)O)C(=O)CCc2cc(Cl)c(Oc3ccsc3C(=O)N3CCN(C4CC4)c4ccccc43)cc2Cl)CC(=O)O)CCCN1C(=O)C[C@H](N)Cc1cc(F)c(F)cc1F (mixture of isomers)
Activity (Mus musculus [4]): Active
Activity (Mus musculus [5]): Active
Activity (Mus musculus [6]): Active
Activity (Mus musculus [8]): Active
inhibition (Mus musculus [10]): inactive
Activity (Mus musculus [11]): Active
Activity (Mus musculus [12]): Active
Activity (Mus musculus [14]): Active
Activity (Mus musculus [15]): Active
Activity (Mus musculus [16]): Active
Activity (Mus musculus [17]): Active
inhibition (Mus musculus [18]): Active
Activity (Mus musculus [19]): Active
inhibition (Mus musculus [20]): Active
Activity (Mus musculus [21]): Active
inhibition (Mus musculus [22]): Active
inhibition (Mus musculus [23]): Active
Activity (Mus musculus [26]): Active
inhibition (Mus musculus [27]): inactive
